Values of other authors, collected in paper PMC10055906 (Chemical Science, 2023).

Target: FGF2 (Homo sapiens, UniProt P09038)
Conditions: read-out: KD (FGF2 affinity)

Sequence of FGF2 (P09038 134-288): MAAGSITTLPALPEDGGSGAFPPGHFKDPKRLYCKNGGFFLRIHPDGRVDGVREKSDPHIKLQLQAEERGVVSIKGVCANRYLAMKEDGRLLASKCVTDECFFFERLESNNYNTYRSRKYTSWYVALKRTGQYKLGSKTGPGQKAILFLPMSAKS

Kd: 1200 nM
Substance: IdoA-GlcNS(6S)-IdoA(2S)-GlcNS(6S)
